Source: patent US10488416B2, “Targeting breast cancer therapy based on stromal subtypes and CD146 composition” (The Regents of the University of Colorado, a Body Corporate, priority 2014, dated 2019)

Tested on: MCF7 cells
Assay: MCF7 invasion scratch wound assay through Matrigel in CAF conditioned media
Assay type: cell-based, human
Conditions: for effect on CD146neg CAF induced invasion: MCF7 in CD146neg CAF conditioned media

## COc1cc2ncnc(Nc3ccc(F)c(Cl)c3)c2cc1OCCCN1CCOCC1 [gefitinib]
  effect on CD146neg CAF induced invasion: successfully blocked
Listed as gefitibib
  effect on CD146neg CAF induced invasion: inhibited

B1: HBEGF: HBEGF added to CD146pos CAF conditioned media in the invasion assay (protein, UniProt Q99075 63-148, looked up)
Heparin-binding EGF-like …: DLQEADLDLLRVTLSSKPQALATPNKEEHGKRKKKGKGLGKKRDPCLRKYKDFCIHGECKYVKELRAPSCICHPGYHGERCHGLSL
MCF7 in CD146pos CAF conditioned media
  effect on invasion: stimulated
